# Key:
# FOXO1 = FOXO1 phosphorylation and nuclear localization (Western blot, cell fractionation); assay type: cell-based, human; settings: LNCaP and PC-3-GFP cells
# Source text: The transcription factor FOXO1 is a downstream substrate of Akt in which phosphorylation by Akt prevents its pro-apoptotic actions (Woods et al., 2002). Since previous studies of α-TEA's mechanism of action in inducing apoptosis in cancer cells show a role for Fas signaling (Shun et al., 2004) and since FOXO1 has been proposed to be a transcriptional regulator of FasL (Ciechomska et al., 2003), it was of interest to investigate the effects of α-TEA on FOXO1 phosphorylation status and cellular location. […] FOXO1 is normally localized in the nucleus (Woods et al., 2002) and phosphorylation of FOXO1 by Akt at Ser 256 promotes the relocation of FOXO1 from the nucleus to the cytosol, thereby inhibiting its transcriptional activity (Greer et al., 2005). As expected, control LNCaP and PC-3-GFP cells had high levels of FOXO1 in the cytosol reflecting the constitutively activated state of Akt in these cells (FIG. 7B).
# Plasmids encoding wild type FOXO1 (Flag-tagged FOXO1) and constitutively active FOXO1 (Flag-tagged FOXO1AAA) were generous gifts from Dr. Kun-Liang Guan (Tang et al., 1999). FOXO1 and phospho-FOXO1 antibodies were purchased from Cell Signaling Technology (Beverly, Mass.).
# Preparation of cytoplasmic and nuclear extracts for the foregoing experiments was carried-out using methods that are well known in the art. […]
# TSP-1 = TSP-1 mRNA and protein levels in 66c1-4-GFP mouse mammary tumor cells; assay type: cell-based; settings: 66c1-4-GFP cells, 40 μM α-TEA
# survivin = experiment: Survivin protein level by immunoblot; assay type: cell-based, human; settings: LNCaP and PC-3-GFP cells, 40 μM α-TEA, time-dependent
# Source text: Antibodies to human Flip and survivin used in these experiments were purchased from Santa Cruz Biotechnology (Santa Cruz, Calif.).
smiles,measurement,setting,value
Cc1c(C)c2c(c(C)c1OCC(=O)O)CC[C@@](C)(CCC[C@H](C)CCC[C@H](C)CCCC(C)C)O2 [α-TEA],FOXO1 nuclear localization,FOXO1; 40 μM α-TEA for 24 h,increase in FOXO1 levels in the nucleus
same,phospho-FOXO1 levels,"FOXO1; 40 μM α-TEA, 3-24 h, total protein unchanged",reduced in a time-dependent manner
same,"peak TSP-1 mRNA levels, fold of VEH control",TSP-1; 6 h,2.4 fold
same,"TSP-1 protein levels, fold of VEH control",TSP-1; 24 h,7.8 fold
same,protein levels of survivin,survivin,downregulated
